We go through three compounds from publication PMC7586344, “Discovery of Novel pERK1/2- or β-Arrestin-Preferring 5-HT1A Receptor-Biased Agonists: Diversified Therapeutic-like versus Side Effect Profile” (Journal of Medicinal Chemistry, 2020).

One series in a line: Intrinsic clearance. It counts as in vitro ADME. The settings on record: rat, rat liver microsomes, pH 7.4. For orientation: Liver microsomes are vesicles of endoplasmic reticulum, rich in cytochrome P450 enzymes.
A further series has as its target T1, 5-HT3 (Homo sapiens, UniProt P46098).
T1 construct: Eurofins Pharma Discovery Services (contract screen)
T1 sequence (P46098 24-478): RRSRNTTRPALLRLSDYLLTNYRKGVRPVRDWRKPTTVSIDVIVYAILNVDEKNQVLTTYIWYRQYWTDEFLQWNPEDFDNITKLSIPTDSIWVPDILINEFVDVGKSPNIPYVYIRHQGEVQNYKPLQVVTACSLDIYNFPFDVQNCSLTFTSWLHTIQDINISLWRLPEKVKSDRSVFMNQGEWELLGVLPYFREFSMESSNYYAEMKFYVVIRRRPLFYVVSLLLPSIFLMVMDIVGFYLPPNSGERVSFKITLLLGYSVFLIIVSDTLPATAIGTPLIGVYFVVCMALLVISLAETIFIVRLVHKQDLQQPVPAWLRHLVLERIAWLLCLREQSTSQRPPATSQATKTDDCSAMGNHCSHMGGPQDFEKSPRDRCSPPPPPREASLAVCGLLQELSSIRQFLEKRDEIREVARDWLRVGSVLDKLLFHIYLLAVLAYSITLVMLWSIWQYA
The series can be described thus: Off-target binding screen. Conditions: 1000 nM, read-out: % Inhibition of Control Specific Binding.

The target in the next series is T2, 5-HT7 (Homo sapiens, UniProt P34969).
T2 construct: Eurofins Pharma Discovery Services (contract screen)
T2 sequence (P34969 whole entry, species assumed): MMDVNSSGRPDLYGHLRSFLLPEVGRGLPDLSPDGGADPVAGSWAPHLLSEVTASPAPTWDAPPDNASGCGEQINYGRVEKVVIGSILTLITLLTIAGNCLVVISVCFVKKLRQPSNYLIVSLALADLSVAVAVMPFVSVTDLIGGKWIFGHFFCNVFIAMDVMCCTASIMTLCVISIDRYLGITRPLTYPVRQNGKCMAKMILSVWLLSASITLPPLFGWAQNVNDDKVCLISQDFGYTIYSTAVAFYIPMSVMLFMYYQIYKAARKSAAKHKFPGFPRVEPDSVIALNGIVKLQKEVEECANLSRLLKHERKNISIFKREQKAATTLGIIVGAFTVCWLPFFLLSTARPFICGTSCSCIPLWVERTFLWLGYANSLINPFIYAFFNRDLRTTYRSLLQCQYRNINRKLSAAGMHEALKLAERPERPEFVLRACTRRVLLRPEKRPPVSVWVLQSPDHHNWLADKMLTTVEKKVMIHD
The series can be described thus: Off-target binding screen. Conditions: read-out: % Inhibition of Control Specific Binding; for inhibition at 1 µM: 1000 nM.

The target of another series is T3, α2C (Homo sapiens, UniProt P18825).
T3 construct: Eurofins Pharma Discovery Services (contract screen)
T3 sequence (P18825 1-462): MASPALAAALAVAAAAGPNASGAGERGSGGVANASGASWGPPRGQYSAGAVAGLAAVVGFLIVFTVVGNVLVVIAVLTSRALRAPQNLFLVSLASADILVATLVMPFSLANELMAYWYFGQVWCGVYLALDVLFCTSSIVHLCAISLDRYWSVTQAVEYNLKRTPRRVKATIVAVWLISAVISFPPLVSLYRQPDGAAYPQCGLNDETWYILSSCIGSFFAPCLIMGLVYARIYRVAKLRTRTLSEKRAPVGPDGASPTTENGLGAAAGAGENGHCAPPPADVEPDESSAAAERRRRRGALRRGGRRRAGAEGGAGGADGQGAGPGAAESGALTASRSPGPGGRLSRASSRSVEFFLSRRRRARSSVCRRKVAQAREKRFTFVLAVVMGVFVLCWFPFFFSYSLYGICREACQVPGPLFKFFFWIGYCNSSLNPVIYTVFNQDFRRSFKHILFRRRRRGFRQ
The series can be described thus: Off-target binding screen. Conditions: read-out: % Inhibition of Control Specific Binding; for inhibition at 0.001 µM: 1 nM; for inhibition at 0.01 µM: 10 nM; for inhibition at 0.1 µM: 100 nM; for inhibition at 1 µM: 1000 nM.

Another series concerns the target T4, D3 (Homo sapiens, UniProt P35462).
T4 construct: Eurofins Pharma Discovery Services (contract assay)
The series can be described thus: Off-target binding screen. Conditions: read-out: % Inhibition of Control Specific Binding; for inhibition at 0.01 µM: 10 nM; for inhibition at 0.1 µM: 100 nM; for inhibition at 1 µM: 1000 nM.

Another series deals with T5, D4.4 (Homo sapiens, UniProt P21917).
T5 construct: Eurofins Pharma Discovery Services (contract assay)
T5 sequence (P21917 1-419): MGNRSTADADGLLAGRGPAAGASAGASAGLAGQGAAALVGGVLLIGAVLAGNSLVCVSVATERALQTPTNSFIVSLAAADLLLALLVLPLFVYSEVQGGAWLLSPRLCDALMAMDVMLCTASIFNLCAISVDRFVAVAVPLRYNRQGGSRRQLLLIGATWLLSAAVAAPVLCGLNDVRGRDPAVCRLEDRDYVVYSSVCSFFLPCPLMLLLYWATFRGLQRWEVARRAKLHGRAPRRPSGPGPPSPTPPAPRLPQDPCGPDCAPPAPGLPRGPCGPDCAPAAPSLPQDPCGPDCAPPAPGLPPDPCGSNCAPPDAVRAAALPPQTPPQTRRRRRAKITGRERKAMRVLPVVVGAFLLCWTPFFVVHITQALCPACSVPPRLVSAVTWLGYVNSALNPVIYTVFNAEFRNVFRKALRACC
The series can be described thus: Off-target binding screen. Conditions: read-out: % Inhibition of Control Specific Binding; for inhibition at 0.001 µM: 1 nM; for inhibition at 0.01 µM: 10 nM; for inhibition at 0.1 µM: 100 nM; for inhibition at 1 µM: 1000 nM.

A further series deals with T6, M4 (Homo sapiens, UniProt P08173).
T6 construct: Eurofins Pharma Discovery Services (contract assay)
T6 sequence (P08173 1-479): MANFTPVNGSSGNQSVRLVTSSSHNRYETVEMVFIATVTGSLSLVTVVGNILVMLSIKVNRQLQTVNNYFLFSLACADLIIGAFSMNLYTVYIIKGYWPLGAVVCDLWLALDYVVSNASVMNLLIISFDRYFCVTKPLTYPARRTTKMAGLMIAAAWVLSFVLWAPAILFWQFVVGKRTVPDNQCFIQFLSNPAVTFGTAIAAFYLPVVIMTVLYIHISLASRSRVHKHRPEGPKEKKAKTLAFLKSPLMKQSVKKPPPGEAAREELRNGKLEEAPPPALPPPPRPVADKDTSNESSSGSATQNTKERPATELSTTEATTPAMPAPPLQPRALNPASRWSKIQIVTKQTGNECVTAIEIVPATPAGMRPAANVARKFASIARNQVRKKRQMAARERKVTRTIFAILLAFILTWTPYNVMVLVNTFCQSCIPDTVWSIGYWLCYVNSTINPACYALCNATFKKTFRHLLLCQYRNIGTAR
The series can be described thus: Off-target binding screen. The settings on record: 1000 nM, read-out: % Inhibition of Control Specific Binding.

In another series the target is T7, M5 (Homo sapiens, UniProt P08912).
T7 construct: Eurofins Pharma Discovery Services (contract assay)
T7 sequence (P08912 1-532): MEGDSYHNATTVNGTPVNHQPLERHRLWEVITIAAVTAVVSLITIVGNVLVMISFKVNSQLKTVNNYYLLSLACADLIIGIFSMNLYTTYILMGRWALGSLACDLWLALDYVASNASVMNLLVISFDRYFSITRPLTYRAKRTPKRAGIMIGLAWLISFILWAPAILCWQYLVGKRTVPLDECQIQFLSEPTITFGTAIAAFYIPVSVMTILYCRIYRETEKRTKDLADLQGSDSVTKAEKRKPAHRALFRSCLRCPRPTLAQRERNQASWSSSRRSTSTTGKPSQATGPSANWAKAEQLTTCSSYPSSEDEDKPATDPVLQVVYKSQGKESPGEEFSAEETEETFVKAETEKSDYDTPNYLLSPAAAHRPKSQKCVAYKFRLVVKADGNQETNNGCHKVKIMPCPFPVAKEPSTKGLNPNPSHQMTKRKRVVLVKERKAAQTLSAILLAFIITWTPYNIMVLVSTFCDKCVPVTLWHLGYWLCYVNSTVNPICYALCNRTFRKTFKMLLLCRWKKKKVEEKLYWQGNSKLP
The series can be described thus: Off-target binding screen. Conditions: read-out: % Inhibition of Control Specific Binding; for inhibition at 1 µM: 1000 nM.

Another series deals with T8, σ2 (Homo sapiens, UniProt Q5BJF2).
T8 construct: Eurofins Pharma Discovery Services (contract assay)
T8 sequence (Q5BJF2 whole entry): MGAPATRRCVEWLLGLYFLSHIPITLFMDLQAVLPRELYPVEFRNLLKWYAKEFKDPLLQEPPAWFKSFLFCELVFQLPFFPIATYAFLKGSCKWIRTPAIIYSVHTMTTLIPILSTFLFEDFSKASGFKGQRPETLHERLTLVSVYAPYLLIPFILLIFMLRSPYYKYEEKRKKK
The series can be described thus: Off-target binding screen. Conditions: read-out: % Inhibition of Control Specific Binding; for inhibition at 0.01 µM: 10 nM; for inhibition at 0.1 µM: 100 nM; for inhibition at 1 µM: 1000 nM.

For the next series, the target named is T9, GABAA1 (α1,β2,γ2) (Homo sapiens, UniProt P14867+P18507+P47870).
T9 construct: Eurofins Pharma Discovery Services (contract assay)
T9 sequence (P14867 28-456): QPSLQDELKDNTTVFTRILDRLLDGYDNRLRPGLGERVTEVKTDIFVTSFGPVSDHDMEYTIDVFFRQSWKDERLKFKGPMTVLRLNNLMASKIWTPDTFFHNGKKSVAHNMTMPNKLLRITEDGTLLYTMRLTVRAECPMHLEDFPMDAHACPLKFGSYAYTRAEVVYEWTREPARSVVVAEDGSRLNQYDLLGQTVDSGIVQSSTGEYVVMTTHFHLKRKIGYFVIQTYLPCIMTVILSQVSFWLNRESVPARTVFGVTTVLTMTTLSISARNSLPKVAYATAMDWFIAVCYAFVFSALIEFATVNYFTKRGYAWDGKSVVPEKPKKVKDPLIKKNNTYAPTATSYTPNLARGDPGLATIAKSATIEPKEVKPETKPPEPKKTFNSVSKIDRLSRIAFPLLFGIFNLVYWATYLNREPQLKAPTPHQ
T9 sequence (P47870 25-512 limits assumed): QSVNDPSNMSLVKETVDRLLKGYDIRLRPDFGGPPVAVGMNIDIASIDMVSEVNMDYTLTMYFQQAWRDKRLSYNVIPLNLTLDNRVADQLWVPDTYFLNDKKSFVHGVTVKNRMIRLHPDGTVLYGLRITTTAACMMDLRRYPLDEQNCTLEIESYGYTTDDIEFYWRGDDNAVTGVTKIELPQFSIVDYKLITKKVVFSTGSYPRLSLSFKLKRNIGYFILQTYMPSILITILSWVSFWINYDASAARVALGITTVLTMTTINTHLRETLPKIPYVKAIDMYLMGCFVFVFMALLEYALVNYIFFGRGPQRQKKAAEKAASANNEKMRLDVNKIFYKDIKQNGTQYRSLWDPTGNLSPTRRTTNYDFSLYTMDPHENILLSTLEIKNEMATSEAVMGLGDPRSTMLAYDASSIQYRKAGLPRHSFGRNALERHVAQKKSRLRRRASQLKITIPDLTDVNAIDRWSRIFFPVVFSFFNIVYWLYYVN
T9 sequence (P18507 40-475): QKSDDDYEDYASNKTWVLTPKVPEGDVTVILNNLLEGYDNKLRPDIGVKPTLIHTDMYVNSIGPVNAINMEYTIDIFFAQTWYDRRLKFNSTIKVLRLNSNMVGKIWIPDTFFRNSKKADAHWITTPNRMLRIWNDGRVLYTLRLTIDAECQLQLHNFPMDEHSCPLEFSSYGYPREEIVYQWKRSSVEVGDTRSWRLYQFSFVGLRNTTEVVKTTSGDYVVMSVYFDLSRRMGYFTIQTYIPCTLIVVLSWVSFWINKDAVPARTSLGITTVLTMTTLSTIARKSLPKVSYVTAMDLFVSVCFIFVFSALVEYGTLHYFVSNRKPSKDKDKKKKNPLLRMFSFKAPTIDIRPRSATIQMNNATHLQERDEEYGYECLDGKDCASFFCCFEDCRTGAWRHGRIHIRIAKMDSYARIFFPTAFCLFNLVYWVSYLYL
The series can be described thus: Off-target binding screen. The settings on record: 1000 nM, read-out: % Inhibition of Control Specific Binding.

T4 sequence (P35462 whole entry): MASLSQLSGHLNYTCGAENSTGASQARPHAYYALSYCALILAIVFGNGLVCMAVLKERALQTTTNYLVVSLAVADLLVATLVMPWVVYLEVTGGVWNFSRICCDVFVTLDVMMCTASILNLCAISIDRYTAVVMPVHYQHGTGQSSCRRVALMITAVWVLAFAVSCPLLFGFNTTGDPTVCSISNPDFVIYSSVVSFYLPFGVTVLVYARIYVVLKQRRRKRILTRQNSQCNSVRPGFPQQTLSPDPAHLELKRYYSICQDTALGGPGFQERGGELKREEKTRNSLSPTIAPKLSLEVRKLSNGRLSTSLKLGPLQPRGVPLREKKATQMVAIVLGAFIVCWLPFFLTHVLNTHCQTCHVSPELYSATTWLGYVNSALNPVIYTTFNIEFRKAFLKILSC

For `O=C(c1ccc(F)c(Cl)c1)N1CCC(F)(CNCCOc2ccccc2)CC1` [Compound 3], the CLint scaled (in general, a measure of how fast metabolising enzymes remove a compound, apart from limits set by blood flow) at […], 50 µM in “Intrinsic clearance” is 2.5 L/h/kg. Besides, the inhibition (as a rule, the relative decrease from the control value, in per cent) at 1 µM was -4% on 5-HT3; 30% at 5-HT7; 92% on α2C; 69% on D3; 92% at D4.4; -9% at M4. Also, the inhibition at 1 µM is 3% at M5, 82% at σ2 and -18% on GABAA1 (α1,β2,γ2). Besides, the inhibition at 0.001 µM at α2C is 1%; at D4.4, -1%. In addition, the inhibition at 0.01 µM at α2C came out at 18%; on D3 it was 12%; on D4.4, 8%; on σ2, 11%. The inhibition at 0.1 µM at α2C was found to be 66%; on D3 it was 26%; at D4.4, 59%; at σ2, 33%.

In the series “Intrinsic clearance”, `CNc1ccccc1OCCNCC1(F)CCN(C(=O)c2ccc(F)c(Cl)c2)CC1` [Compound 44, (3-Chloro-4-fluorophenyl)(4-fluoro-4-(((2-(2-(methylamino)phenoxy)ethyl)amino)methyl)piperidin-1-yl)methanone] showed a CLint scaled at […], 50 µM of 2.93 L/h/kg. Moreover, the inhibition at 1 µM at 5-HT3 was -11%; on 5-HT7, 11%; at α2C it was 32%; on D3, 42%; at D4.4, 90%; at M4, -11%. For the same compound, the inhibition at 1 µM on M5 is -1%; at σ2, 52%; on GABAA1 (α1,β2,γ2) it was -4%. Also, the inhibition at 0.1 µM was found to be 51% at D4.4 and 10% at σ2. The inhibition at 0.01 µM at σ2 was 2%.

Turning to `O=C(c1ccc(F)c(Cl)c1)N1CCC(F)(CNCCOc2cccc3[nH]ccc23)CC1` [Compound 56, (4-(((2-((1H-Indol-4-yl)oxy)ethyl)amino)methyl)-4-fluoropiperidin-1-yl)(3-chloro-4-fluorophenyl)methanone], in “Intrinsic clearance”, the CLint scaled at […], 50 µM was determined as 0.576 L/h/kg. For the same compound, the inhibition at 1 µM on 5-HT3 was -10%; on D3 it was 99%; at D4.4 it was 98%; on M4, -10%; on M5, 54%; at σ2, 63%. The inhibition at 1 µM on GABAA1 (α1,β2,γ2) was -13%. Moreover, the inhibition at 0.001 µM at 5-HT7 (1 nM) is 5%; at α2C, 3%; at D3 (1 nM) it was 41%; on D4.4, 9%. In addition, the inhibition at 0.01 µM is 32% on 5-HT7 (10 nM); 18% on α2C; 36% on D3; 48% on D4.4; 4% at M5 (10 nM); -1% at σ2. Moreover, the inhibition at 0.1 µM on 5-HT7 (100 nM) is 68%; at α2C it was 74%; at D3 it was 85%; on D4.4, 89%; at M5 (100 nM) it was -3%; on σ2, 31%.
